Where no end group is shown, it is not given here.
Test system: Sprague-Dawley rats
Assay: Delayed alternation test (T-maze) for cognitive function improvement
Format: in vivo, rat
Conditions: oral, 100 mg/ml solution; for effect of improving cognitive function and memory in the early stage of administration: delay of 5 seconds, early stage of 9-day training; for effect of improving cognitive function and memory (T-maze performance): delay of 5 seconds between trials, 9 days training
Description: Experimental animals were white male Sprague-Dawley rats (140 to 180 g, Daehan Biolink Co., Ltd.). These rats were housed in cages (4 rats per cage) in a constant environment (temperature: 25±1° C., and relative humidity: 60±10%) for one week and allowed to access water ad libitum. At this time, the feed was fed in a limited manner so that 80% of the body weight was kept. In this experiment, a total of 50 rats were used. The rats were adapted to the maze for 5 minutes a day for 3 days before training.
In the first trial, the animals were adapted to the start arm. The first trial is a “forced-choice trial”, in which one arm was blocked with the door and when the animal entered the other arm, the rear was blocked with the door. The animal was considered as entering the arm when all four paws passed through the entrance. The animal was allowed to eat feed in the corresponding arm for 60 seconds. The next trials were “free-choice trials”, in which the animal was free to choose the direction of the arm (left or right) starting from the start arm. The animal was made to be able to eat food as a reward only when it entered the arm that entered in the previous trial and the opposite arm.
The trials were performed with delays of 5 seconds and 20 seconds, and the cut-off time of each trial was set to 60 seconds. The number of times the animal entered the forced-choice arm and the time taken to enter the arm were measured. The same procedure was performed for 9 days with 10 trials per day, followed by assessment.
The silk peptides NF1, NF2 and TF1 to TF9 were prepared into solutions, each containing 100 mg/ml of each peptide, and were administered orally. All the samples were dissolved in distilled water and administered orally.

| Substance | effect of improving cognitive function and memory in the early stage of administration | effect of improving cognitive function and memory (T-maze performance) |
| --- | --- | --- |
| Ala-Gly-Gly-Ala (AGGA; printed: Ala-Gly-Gly-Ala) [Peptide P4-1] | significantly increased effect of improving cognitive function and memory in the early stage of administration | – |
| Ile-Gly-Ala-Tyr (IGAY; printed: Ile-Gly-Ala-Tyr) [Peptide P2-3] | – | relatively low |
| Ile-Gly-Gln-Gly (IGQG; printed: Ile-Gly-Gln-Gly) [Peptide P2-4] | – | relatively low |
| Ile-Gly-Tyr-Val (IGYV; printed: Ile-Gly-Tyr-Val) [Peptide P2-1] | – | relatively low |
| Ile-Gly-Val-Ala (IGVA; printed: Ile-Gly-Val-Ala) [Peptide P2-2] | – | relatively better |
| Ile-Gly-Val-Ala-Gly (IGVAG; printed: Ile-Gly-Val-Ala-Gly) [Peptide F3] | high activity of improving cognitive function and memory in an early stage, compared to P2-2 | high effect of improving cognitive function and memory, compared to P2-2 |
| Ile-Gly-Val-Ala-Thr (IGVAT; printed: Ile-Gly-Val-Ala-Thr) [Peptide F1] | high activity of improving cognitive function and memory in an early stage, compared to P2-2 | high effect of improving cognitive function and memory, compared to P2-2 |
| Ile-Gly-Val-Ala-Tyr (IGVAY; printed: Ile-Gly-Val-Ala-Tyr) [Peptide F2] | high activity of improving cognitive function and memory in an early stage, compared to P2-2 | high effect of improving cognitive function and memory, compared to P2-2 |
| Tyr-Gly-Ala-Ala (YGAA; printed: Tyr-Gly-Ala-Ala) [Peptide P1-3] | – | increased effect of improving cognitive function and memory |
| Tyr-Gly-Gly-Ala (YGGA; printed: Tyr-Gly-Gly-Ala) [Peptide P1-2] | – | increased effect of improving cognitive function and memory |
| Tyr-Gly-Gly-Tyr (YGGY; printed: Tyr-Gly-Gly-Tyr) [Peptide P4-2] | – | increased effect of improving cognitive function and memory |
| Tyr-Gly-Ile-Ala (YGIA; printed: Tyr-Gly-Ile-Ala) [Peptide P1-6] | significantly increased effect of improving cognitive function and memory in the early stage of administration | increased effect of improving cognitive function and memory |
| Tyr-Gly-Val-Ile (YGVI; printed: Tyr-Gly-Val-Ile) [Peptide P1-5] | – | increased effect of improving cognitive function and memory |
| YGGYGI [Peptide P5-1] | excellent activity of improving cognitive function and memory in the early stage | clearly better effect of improving cognitive function and memory than P4-2 |
